Results taken from US7935674B2, “Indole derivatives” (Mitsubishi Tanabe Pharma Corporation, priority 2005, dated 2011).
Where two headings read alike, the source gives them in different places.

Assays:
[1] = tested on: Sprague-Dawley (SD) rats; assay: Urinary glucose excretion test in rats; type: in vivo, rat; settings: male SD rats; 30 mg/kg by oral gavage; urine collected for 24 hours; daily amount of glucose excreted in urine per individual
Experimental: 2. Urinary Glucose Excretion Test in Rats Test Compounds:
Compounds described in the above examples were used for the Urinary glucose excretion test in rats.
6-week-old male Sprague-Dawley (SD) rats were housed in individual metabolic cages with free access to food and water from 2 days prior to the experiment. On the morning of the experiment, rats were administered vehicle (0.2% carboxymethyl cellulose solution containing 0.2% Tween80) or test compounds (30 mg/kg) by oral gavage at a volume of 10 ml/kg. Then, urine of the rat was collected for 24 hours, and the urine volume was measured. Subsequently, the glucose concentration in urine was quantified using the enzymatic assay kit and the daily amount of glucose excreted in urine per individual was calculated.

[2] = target: T1, human SGLT2 (Homo sapiens, UniProt P31639); assay: Assay for SGLT2 inhibition (14C-AMG uptake in CHOK1 cells expressing human SGLT2); type: cell-based
T1 construct: expressed in transfected cells; host or cells: CHOK1 (Chinese hamster ovary) cells, kept under Geneticin selection
T1 sequence (P31639 1-672): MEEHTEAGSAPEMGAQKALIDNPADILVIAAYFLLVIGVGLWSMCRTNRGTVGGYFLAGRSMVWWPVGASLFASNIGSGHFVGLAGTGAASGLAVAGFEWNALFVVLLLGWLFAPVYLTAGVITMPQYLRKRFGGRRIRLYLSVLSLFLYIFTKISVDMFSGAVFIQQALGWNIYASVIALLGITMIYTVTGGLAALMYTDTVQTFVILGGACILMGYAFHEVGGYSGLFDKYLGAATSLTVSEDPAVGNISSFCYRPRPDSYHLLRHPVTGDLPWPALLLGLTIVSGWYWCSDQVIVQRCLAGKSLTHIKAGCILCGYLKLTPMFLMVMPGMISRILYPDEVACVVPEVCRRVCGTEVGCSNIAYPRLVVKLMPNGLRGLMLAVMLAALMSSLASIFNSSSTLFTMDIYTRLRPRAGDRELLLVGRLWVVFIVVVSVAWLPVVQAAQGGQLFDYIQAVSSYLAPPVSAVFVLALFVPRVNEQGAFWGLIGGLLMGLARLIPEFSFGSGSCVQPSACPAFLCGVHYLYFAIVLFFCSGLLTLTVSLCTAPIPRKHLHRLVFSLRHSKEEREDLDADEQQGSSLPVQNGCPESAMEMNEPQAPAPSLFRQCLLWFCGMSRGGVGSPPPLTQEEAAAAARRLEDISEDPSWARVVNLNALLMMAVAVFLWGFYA
Experimental: 1. Assay for SGLT2 Inhibition
Compounds described in the above examples were used for the SGLT2 inhibition assay.
CHOK1 cells expressing human SGLT2 were seeded in 24-well plates at a density of 400,000 cells/well in F-12 nutrient mixture (Ham's F-12) containing 10% fetal bovine serum, 400 μg/ml Geneticin, 50 units/ml sodium penicillin G (Gibco-BRL) and 50 μg/ml streptomycin sulfate. After 2 days of culture at 37° C. in a humidified atmosphere containing 5% CO2, cells were washed once with the assay buffer (137 mM NaCl, 5 mM KCl, 1 mM CaCl2, 1 mM MgCl2, 50 mM Hepes, and 20 mM Tris, pH 7.4) and incubated with 250 μl of the buffer containing test compounds for 10 min at 37° C. Test compounds were dissolved in DMSO. The final concentration of DMSO was 0.5%. The transport reaction was initiated by addition of 50 μl [^14C]-methyl-α-D-glucopyranoside (^14C-AMG) solution (final concentration, 0.5 mM). After incubation for 2 hours at 37° C., the uptake was stopped by aspiration of the incubation mixture, the cells were washed three times with ice-cold PBS. Then, cells were solubilized with 0.3 N NaOH and aliquots were taken for determination of radioactivity by a liquid scintillation counter. Nonspecific AMG uptake was defined as that which occurred in the presence of 100 μM of phlorizin, a specific inhibitor of sodium-dependent glucose cotransporter. Specific uptake was normalized for the protein concentrations measured by the method of Bradford. The 50% inhibitory concentration (IC50) values were calculated from dose-response curves by least square method.

[3] = CHOK1 cells expressing human SGLT2, 14C-AMG uptake, 0.5 mM, 2 hours at 37° C., read-out: IC50

| SMILES | Urinary glucose [1] | IC50 [2, 3] | IC50 [2] |
| --- | --- | --- | --- |
| OC[C@H]1O[C@@H](n2cc(Cc3ccc(OCCCl)cc3)c3c(Cl)cccc32)[C@H](O)[C@@H](O)[C@@H]1O [Example 19, 4-Chloro-3-(4-(2-chloroethyloxy)phenylmethyl)-1-(β-D-gluco-pyranosyl)indole] | A (A≧2400 mg) | 3.9 nM | – |
| OC[C@H]1O[C@@H](n2cc(Cc3ccc4occc4c3)c3c(F)cccc32)[C@H](O)[C@@H](O)[C@@H]1O [Example 20, 3-(Benzo[b]furan-5-yl-methyl)-4-fluoro-1-(β-D-glucopyranosyl) indole] | A (A≧2400 mg) | 5.7 nM | – |
| OC[C@H]1O[C@@H](n2cc(Cc3ccc(C(F)F)cc3)c3c(F)cccc32)[C@H](O)[C@@H](O)[C@@H]1O [Example 25, 3-(4-(Difluoromethyl)phenylmethyl)-4-fluoro-1-(β-D-gluco-pyranosyl)indole] | B (2400 mg>B≧2000 mg) | 11 nM | – |
| OC[C@H]1O[C@@H](n2cc(Cc3ccc(OC(F)F)cc3)c3c(F)cccc32)[C@H](O)[C@@H](O)[C@@H]1O [Example 26, 3-(4-(Difluoromethoxy)phenylmethyl)-4-fluoro-1-(β-D-gluco-pyranosyl)indole] | A (A≧2400 mg) | 11 nM | – |
| OC[C@H]1O[C@@H](n2cc(Cc3ccc(F)cc3)c3c(Cl)cccc32)[C@H](O)[C@@H](O)[C@@H]1O [Example 27, 4-Chloro-3-(4-fluorophenylmethyl)-1-(β-D-glucopyranosyl)-indole] | B (2400 mg>B≧2000 mg) | 16 nM | – |
| CCOc1ccc(Cc2cn([C@@H]3O[C@H](CO)[C@@H](O)[C@H](O)[C@H]3O)c3cc(Cl)cc(Cl)c23)cc1 [Example 28, 4,6-Dichloro-3-(4-ethoxyphenylmethyl)-1-(β-D-glucopyranosyl)-indole] | B (2400 mg>B≧2000 mg) | 3.2 nM | – |
| OC[C@H]1O[C@@H](n2cc(Cc3ccc(OC(F)(F)F)cc3)c3c(Cl)cccc32)[C@H](O)[C@@H](O)[C@@H]1O [Example 29, 4-Chloro-3-(4-(trifluoromethoxy)phenylmethyl)-1-(β-D-gluco-pyranosyl)indole] | B (2400 mg>B≧2000 mg) | 9.6 nM | – |
| OC[C@H]1O[C@@H](n2cc(Cc3ccc(C(F)F)cc3)c3c(Cl)cccc32)[C@H](O)[C@@H](O)[C@@H]1O [Example 30, 4-Chloro-3-(4-(difluoromethyl)phenylmethyl)-1-(β-D-gluco-pyranosyl)indole] | A (A≧2400 mg) | 3.2 nM | – |
| OC[C@H]1O[C@@H](n2cc(Cc3ccc(OC(F)F)cc3)c3c(Cl)cccc32)[C@H](O)[C@@H](O)[C@@H]1O [Example 31, 4-Chloro-3-(4-(difluoromethoxy)phenylmethyl)-1-(β-D-gluco-pyranosyl)indole] | A (A≧2400 mg) | 2.6 nM | – |
| OC[C@H]1O[C@@H](n2cc(Cc3ccc4occc4c3)c3c(Cl)cc(Cl)cc32)[C@H](O)[C@@H](O)[C@@H]1O [Example 32, 3-(Benzo[b]furan-5-yl-methyl)-4,6-dichloro-1-(β-D-gluco-pyranosyl)indole] | B (2400 mg>B≧2000 mg) | 7.5 nM | – |
| OC[C@H]1O[C@@H](n2cc(Cc3ccc(I)cc3)c3c(Cl)cccc32)[C@H](O)[C@@H](O)[C@@H]1O [Example 33, 4-Chloro-3-(4-iodophenylmethyl)-1-(β-D-glucopyranosyl)-indole] | A (A≧2400 mg) | 4.1 nM | – |
| OC[C@H]1O[C@@H](n2cc(Cc3ccc4occc4c3)c3c(Cl)c(F)ccc32)[C@H](O)[C@@H](O)[C@@H]1O [Example 34, 3-(Benzo[b]furan-5-yl-methyl)-4-chloro-5-fluoro-1-(β-D-gluco-pyranosyl)indole] | B (2400 mg>B≧2000 mg) | 11 nM | – |
| CCOc1ccc(Cc2cn([C@@H]3O[C@H](CO)[C@@H](O)[C@H](O)[C@H]3O)c3ccc(F)c(Cl)c23)cc1 [Example 35, 4-Chloro-3-(4-ethoxyphenylmethyl)-5-fluoro-1-(β-D-gluco-pyranosyl)indole] | A (A≧2400 mg) | 9.1 nM | – |
| OC[C@H]1O[C@@H](n2cc(Cc3ccc(I)cc3)c3c(Cl)cc(Cl)cc32)[C@H](O)[C@@H](O)[C@@H]1O [Example 36, 4,6-Dichloro-3-(4-iodophenylmethyl)-1-(β-D-glucopyranosyl)-indole] | B (2400 mg>B≧2000 mg) | 14 nM | – |
| OC[C@H]1O[C@@H](n2cc(Cc3ccc(I)cc3)c3c(Cl)c(F)ccc32)[C@H](O)[C@@H](O)[C@@H]1O [Example 37, 4-Chloro-5-fluoro-3-(4-iodophenylmethyl)-1-(β-D-gluco-pyranosyl)indole] | B (2400 mg>B≧2000 mg) | 14 nM | – |
| Cc1cccc2c1c(Cc1ccc(Br)cc1)cn2[C@@H]1O[C@H](CO)[C@@H](O)[C@H](O)[C@H]1O [Example 38, 3-(4-Bromophenylmethyl)-4-methyl-1-(β-D-glucopyranosyl)-indole] | B (2400 mg>B≧2000 mg) | 12 nM | – |
| Cc1cccc2c1c(Cc1ccc(I)cc1)cn2[C@@H]1O[C@H](CO)[C@@H](O)[C@H](O)[C@H]1O [Example 39, 3-(4-Iodophenylmethyl)-4-methyl-1-(β-D-glucopyranosyl)indole] | B (2400 mg>B≧2000 mg) | 3.6 nM | – |
| Cc1cccc2c1c(Cc1ccc3occc3c1)cn2[C@@H]1O[C@H](CO)[C@@H](O)[C@H](O)[C@H]1O [Example 40, 3-(Benzo[b]furan-5-yl-methyl)-4-methyl-1-(β-D-glucopyranosyl)indole] | B (2400 mg>B≧2000 mg) | 6.2 nM | – |
| OC[C@H]1O[C@@H](n2cc(Cc3ccc(Br)cc3)c3c(Br)cccc32)[C@H](O)[C@@H](O)[C@@H]1O [Example 41, 4-Bromo-3-(4-bromophenylmethyl)-1-(β-D-glucopyranosyl)indole] | B (2400 mg>B≧2000 mg) | 12 nM | – |
| OC[C@H]1O[C@@H](n2cc(Cc3ccc(I)cc3)c3c(Br)cccc32)[C@H](O)[C@@H](O)[C@@H]1O [Example 42, 4-Bromo-3-(4-iodophenylmethyl)-1-(β-D-glucopyranosyl)indole] | A (A≧2400 mg) | 6.1 nM | – |
| OC[C@H]1O[C@@H](n2cc(Cc3ccc4occc4c3)c3c(Br)cccc32)[C@H](O)[C@@H](O)[C@@H]1O [Example 43, 3-(Benzo[b]furan-5-yl-methyl)-4-bromo-1-(β-D-glucopyranosyl)-indole] | A (A≧2400 mg) | 8.4 nM | – |
| OC[C@H]1O[C@@H](n2cc(Cc3ccc(Cl)cc3)c3c(Br)cccc32)[C@H](O)[C@@H](O)[C@@H]1O [Example 44, 4-Bromo-3-(4-chlorophenylmethyl)-1-(β-D-glucopyranosyl)indole] | B (2400 mg>B≧2000 mg) | 20 nM | – |
| OC[C@H]1O[C@@H](n2cc(Cc3ccc(O)cc3)c3c(Cl)cccc32)[C@H](O)[C@@H](O)[C@@H]1O [Example 46, 4-Chloro-3-(4-hydroxyphenylmethyl)-1-(β-D-glucopyranosyl)-indole] | A (A≧2400 mg) | 2.4 nM | – |
| Cc1cccc2c1c(Cc1ccc(C3CC3)cc1)cn2[C@@H]1O[C@H](CO)[C@@H](O)[C@H](O)[C@H]1O [Example 47, 3-(4-Cyclopropylphenylmethyl)-4-methyl-1-(β-D-gluco-pyranosyl)indole] | A (A≧2400 mg) | – | 1.6 nM |
